One series concerns CD44hi PC3 cells. The series can be described thus: Dorsal prostate implantation, tumor growth and lung metastasis. Format: in vivo, NOD/SCID mice. Conditions: miR-141 via lentiviral infection; 100,000 cells into dorsal prostate. The method, then:
FACS-purified CD44^hi luciferase/GFP double-tagged PC3 cells were infected with Lenti-141 or Lenti-ctl (MOI 10) and 100,000 cells each were injected into the DP of NOD/SCID mice (n=9). Tumor growth and metastasis were monitored using bioluminescence imaging (IVIS). FIGS. 2A-2B show the representative images and quantification (in total photon flux) of primary tumors before termination of the experiment. FIGS. 2C-2D show the representative images (FIG. 2C) and quantification (FIG. 2D) of lung metastasis with the primary tumors covered. […] CD44^+ Du145 cells were infected with Lenti-ctl or Lenti-141 (MOI 10; 72 h) and cells were then injected into the DP of male NOD/SCID mice. Mice were terminated at day 56 and organs including lung were harvested for analyzing metastasis. Shown were representative IHC images of humanspecific Ki-67 staining. […] LAPC9-GFP cells were infected with TRIPZ-NS or TRIPZ-141 inducible lentivirus (MOI 10, 72 h) and CD44^+ cells were purified out by FACS. 100,000 cells each were injected into the DP of NOD/SCID mice and, from day 16 on, two groups of mice were treated with Dox (200 mg/kg body weight in feed). Tumor volumes were measure twice weekly (FIG. 2F). Mice were terminated at day 40 and endpoint tumors were harvested and weighted (FIG. 2G; incidence indicated in bars). […]

A further series relates to SUZ12. The series can be described thus: SUZ12 protein level, Western blotting. In kind it is cell-based, human. The following applies: PC3 and Du145, 30 or 60 nM, 72 h. The method, then:
FIG. 6A: Putative binding site of miR-141 in EZH2 3′-UTR. […] FIG. 6C is a qPCR analysis of EZH2 mRNA levels in CD44^+ PCa cells. Bars, mean±SD. *P<0.05; **P<0.01. […] Bars, mean±SD. **P<0.01. […] Western blotting was performed in PC3 and Du145 cells transfected with NC (60 nM) or miR-141 (30 or 60 nM) oligos (72 h). Relative protein levels were measured by densitometry and normalized to GAPDH levels (indicated below). […] Du145 cells plated one day before were treated with 1, 2, and 5 μM of DZNep for 96 h and then cells were harvested for invasion assays. **P<0.01. Inset, WB showing reduced EZH2 proteins by DZNep. […] Du145 cells were transfected with 10 nM scramble siRNA (siCon) or EZH2-targeting siRNAs (siEZH2) or siEZH2 plus anti-miR-141 (30 nM). 48 h later, cells were harvested for invasion assays. Bars, mean±SD. **P<0.01. […] Du145 cells were co-transfected with 30 nM NC or miR-141 oligos together with empty vector or pCMV-EZH2 construct. After 48 h, cells were harvested for invasion assay. Bars, mean±SD. **P<0.01.
For orientation: In western blotting, separated proteins are transferred to a membrane and probed.

The subject of another series is prostate cancer cells. The series can be described thus: Cell death and senescence. Format: cell-based. The following applies: miR-141 expression.

Take “miR-141: miR-141 mirVana mimics (Life Technologies); microRNA-141 oligonucleotide may have SEQ ID NO: 1; in some experiments over-expressed by lentiviral vectors (UAACACUGUCUGGUAAAGAUGG; listed as RNA, further chemistry not given here) [miR-141 mirVana mimics (Life Technologies); in some experiments over-expressed by lentiviral vectors]”: in the series on CD44hi PC3 cells, the lung metastasis entry is “less” and the “primary tumors (size)” value is reported as “smaller”. Moreover, the SUZ12 protein level entry in the series on SUZ12 is given as “reduced”. Besides, in the series with prostate cancer cells, the “effects on cell death and senescence” value is on record as “minimal effects”.

(Values after patent publication US10202604B2, “Methods of using microRNA-141” (Stemirna Therapeutics Co., Ltd., priority 2016, dated 2019).)
